Assay results taken from ChEMBL document CHEMBL1141809, “Antioxidative phenolic glycosides from sage (Salvia officinalis)” (J Nat Prod, 1999).

Experiments:
[1] = Antioxidant activity assessed as trolox equivalent of ABTS radical scavenging activity in aqueous phase by metmyoglobin assay; format: functional
[2] = system: Radical scavenging activity; experiment: Antioxidant activity assessed as DPPH radical scavenging activity after 0.5 hrs; format: functional

IC50 [2] | SMILES | Activity [1]
20.1 µM | O=C(/C=C/c1ccc(O)c(O)c1)OC[C@H]1O[C@H](O[C@]2(CO)O[C@H](CO)[C@@H](O)[C@@H]2O)[C@H](O)[C@@H](O)[C@@H]1O | 3.7
19.8 µM | O=C(/C=C/c1ccc(O)c(O)c1)O[C@H]1O[C@@H](CO[C@H]2OC[C@@](O)(CO)[C@@H]2O)[C@H](O)[C@@H](O)[C@@H]1O | 3.86
